Key:
human JAK1 = human JAK1 (Homo sapiens, UniProt P23458); experiment: In vitro JAK kinase assay (Example A), JAK1; format: biochemical; details: 1 mM ATP
Description: In some embodiments, the JAK1 pathway inhibitor is a compound of Table 2, or a pharmaceutically acceptable salt thereof.

human JAK2 = human JAK2 (Homo sapiens (Human), UniProt O60674); experiment: In vitro JAK kinase assay (Example A), JAK2; format: biochemical; details: JAK2/JAK1 IC50 ratio, 1 mM ATP
Method: The compounds in Table 2 were tested in this assay and shown to have the IC50 values in Table 2.

[1] = system: patients with BOS after lung transplantation; details: cited from earlier work

human JAK2, sequence (O60674 828-1132): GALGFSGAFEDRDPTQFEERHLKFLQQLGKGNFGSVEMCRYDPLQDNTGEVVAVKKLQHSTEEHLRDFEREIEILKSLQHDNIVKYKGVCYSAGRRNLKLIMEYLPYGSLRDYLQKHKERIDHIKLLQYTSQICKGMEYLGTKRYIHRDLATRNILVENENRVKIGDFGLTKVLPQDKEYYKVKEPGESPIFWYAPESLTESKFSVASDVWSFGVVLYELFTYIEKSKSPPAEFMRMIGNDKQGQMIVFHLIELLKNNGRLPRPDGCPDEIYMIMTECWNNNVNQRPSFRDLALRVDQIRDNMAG

Structure (SMILES)	IC50 (human JAK1) [nM]	JAK2/JAK1 (human JAK2)	effect on lung function decline ([1]; overall cohort, 30 patients randomized vs placebo)	decline of FEV1 ([1]; post-hoc subanalysis of BOS grade 1 patients, absolute and predicted FEV1)
N#CCC(C1CCN(c2cccc(Cl)n2)C1)n1cc(-c2ncnc3[nH]ccc23)cn1 (single isomer, unassigned) [Compound 6, 3-[1-(6-chloropyridin-2-yl)pyrrolidin-3-yl]-3-[4-(7H-pyrrolo[2,3-d]pyrimidin-4-yl)-1H-pyrazol-1-yl]propanenitrile]	< 10	>10		
N#CC[C@]1(n2cc(-c3ncnc4[nH]ccc34)cn2)C[C@H](N2CCC(Oc3cc(CN4CC(O)C4)cc(C(F)(F)F)n3)CC2)C1 [Compound 11, {trans-3-(4-{[4-[(3-hydroxyazetidin-1-yl)methyl]-6-(trifluoromethyl)pyridin-2-yl]oxy}piperidin-1-yl)-1-[4-(7H-pyrrolo[2,3-d]pyrimidin-4-yl)-1H-pyrazol-1-yl]cyclobutyl}acetonitrile]	< 10	>10		
C[C@@H](O)CNCc1cc(OC2CCN([C@H]3C[C@](CC#N)(n4cc(-c5ncnc6[nH]ccc56)cn4)C3)CC2)nc(C(F)(F)F)c1 [Compound 24, {trans-3-(4-{[4-({[(2R)-2-hydroxypropyl]amino}methyl)-6-(trifluoromethyl)pyridin-2-yl]oxy}piperidin-1-yl)-1-[4-(7H-pyrrolo[2,3-d]pyrimidin-4-yl)-1H-pyrazol-1-yl]cyclobutyl}acetonitrile]	< 10	>10		
C[C@@H](O)c1nc2cnc3ccsc3c2n1[C@H]1CC[C@H](CC#N)OC1 [Compound 5, ((2R,5S)-5-{2-[(1R)-1-hydroxyethyl]-1H-imidazo[4,5-d]thieno[3,2-b]pyridin-1-yl}tetrahydro-2H-pyran-2-yl)acetonitrile]	< 100	>10		
N#CC[C@]1(n2cc(-c3ncnc4[nH]ccc34)cn2)C[C@H](N2CCC(Oc3cc(CN4CCC[C@H]4CO)cc(C(F)(F)F)n3)CC2)C1 [Compound 12, {trans-3-(4-{[4-{[(2S)-2-(hydroxymethyl)pyrrolidin-1-yl]methyl}-6-(trifluoromethyl)pyridin-2-yl]oxy}piperidin-1-yl)-1-[4-(7H-pyrrolo[2,3-d]pyrimidin-4-yl)-1H-pyrazol-1-yl]cyclobutyl}acetonitrile]	< 10	>10		
N#CCC(CN1CCN(C(=O)c2ccc(C#N)cc2F)CC1)n1cc(-c2ncnc3[nH]ccc23)cn1 (centres unmarked) [Compound 8, 4-[(4-{3-cyano-2-[4-(7H-pyrrolo[2,3-d]pyrimidin-4-yl)-1H-pyrazol-1-yl]propyl}piperazin-1-yl)carbonyl]-3-fluorobenzonitrile]	< 10	>10		
N#CC[C@]1(n2cc(-c3ncnc4[nH]ccc34)cn2)C[C@H](N2CCN(C(=O)c3ccnc(C(F)(F)F)n3)CC2)C1 [Compound 10, [trans-1-[4-(7H-pyrrolo[2,3-d]pyrimidin-4-yl)-1H-pyrazol-1-yl]-3-(4-{[2-(trifluoromethyl)pyrimidin-4-yl]carbonyl}piperazin-1-yl)cyclobutyl]acetonitrile]	< 10	>10		
N#CCC1(n2cc(-c3ncnc4[nH]ccc34)cn2)CN([C@H]2CC[C@@H](Oc3cc(CN4CC[C@@H](O)C4)cc(C(F)(F)F)n3)CC2)C1 [Compound 21, {1-(cis-4-{[4-{[(3R)-3-hydroxypyrrolidin-1-yl]methyl}-6-(trifluoromethyl)pyridin-2-yl]oxy}cyclohexyl)-3-[4-(7H-pyrrolo[2,3-d]pyrimidin-4-yl)-1H-pyrazol-1-yl]azetidin-3-yl}acetonitrile]	< 10	>10		
N#CCC(C1CCN(c2nc3cccnc3o2)C1)n1cc(-c2ncnc3[nH]ccc23)cn1 (centres unmarked) [Compound 7, 3-(1-[1,3]oxazolo[5,4-b]pyridin-2-ylpyrrolidin-3-yl)-3-[4-(7H-pyrrolo[2,3-d]pyrimidin-4-yl)-1H-pyrazol-1-yl]propanenitrile]	< 10	>10		
N#CC[C@]1(n2cc(-c3ncnc4[nH]ccc34)cn2)C[C@H](N2CCC(Oc3cc(CN4CCC[C@@H]4CO)cc(C(F)(F)F)n3)CC2)C1 [Compound 13, {trans-3-(4-{[4-{[(2R)-2-(hydroxymethyl)pyrrolidin-1-yl]methyl}-6-(trifluoromethyl)pyridin-2-yl]oxy}piperidin-1-yl)-1-[4-(7H-pyrrolo[2,3-d]pyrimidin-4-yl)-1H-pyrazol-1-yl]cyclobutyl}acetonitrile]	< 10	>10		
CC(C)(O)c1ccccc1CC[C@@H](SCC1(CC(=O)O)CC1)c1cccc(/C=C/c2ccc3ccc(Cl)cc3n2)c1 [Montelukast]			no effect on lung function decline	attenuated further decline of FEV1
N#CCC1(n2cc(-c3ncnc4[nH]ccc34)cn2)CN([C@H]2CC[C@@H](Oc3cc(CCO)nc(C(F)(F)F)n3)CC2)C1 [Compound 18, {1-(cis-4-{[6-(2-hydroxyethyl)-2-(trifluoromethyl)pyrimidin-4-yl]oxy}cyclohexyl)-3-[4-(7H-pyrrolo[2,3-d]pyrimidin-4-yl)-1H-pyrazol-1-yl]azetidin-3-yl}acetonitrile]	< 10	>10		
N#CCC(CN1CCN(C(=O)c2ccc(C#N)cc2F)CC1)n1ccc(-c2ncnc3[nH]ccc23)c1 (centres unmarked) [Compound 9, 4-[(4-{3-cyano-2-[3-(7H-pyrrolo[2,3-d]pyrimidin-4-yl)-1H-pyrrol-1-yl]propyl}piperazin-1-yl)carbonyl]-3-fluorobenzonitrile]	< 10	>10		
N#CC[C@]1(n2cc(-c3ncnc4[nH]ccc34)cn2)C[C@H](N2CCC(Oc3cc(CCO)cc(C(F)(F)F)n3)CC2)C1 [Compound 26, {trans-3-(4-{[4-(2-hydroxyethyl)-6-(trifluoromethyl)pyridin-2-yl]oxy}piperidin-1-yl)-1-[4-(7H-pyrrolo[2,3-d]pyrimidin-4-yl)-1H-pyrazol-1-yl]cyclobutyl}acetonitrile]	< 10	>10		
N#CCC1(n2cc(-c3ncnc4[nH]ccc34)cn2)CN([C@H]2CC[C@@H](Oc3cc(CN4CC[C@H](O)C4)cc(C(F)(F)F)n3)CC2)C1 [Compound 22, {1-(cis-4-{[4-{[(3S)-3-hydroxypyrrolidin-1-yl]methyl}-6-(trifluoromethyl)pyridin-2-yl]oxy}cyclohexyl)-3-[4-(7H-pyrrolo[2,3-d]pyrimidin-4-yl)-1H-pyrazol-1-yl]azetidin-3-yl}acetonitrile]	< 10	>10		

More lines, main results first:

IC50 (human JAK1) [nM]	JAK2/JAK1 (human JAK2)	Structure (SMILES)	effect on lung function decline ([1]; overall cohort, 30 patients randomized vs placebo)	decline of FEV1 ([1]; post-hoc subanalysis of BOS grade 1 patients, absolute and predicted FEV1)
< 10	>10	N#CCC1(n2cc(-c3ncnc4[nH]ccc34)cn2)CN(C2CCN(C(=O)Nc3ccc(F)cc3C(F)(F)F)CC2)C1 [Compound 2, 4-{3-(Cyanomethyl)-3-[4-(7H-pyrrolo[2,3-d]pyrimidin-4-yl)-1H-pyrazol-1-yl]azetidin-1-yl}-N-[4-fluoro-2-(trifluoromethyl)phenyl] piperidine-1-carboxamide]		
< 10	>10	N#CCC1(n2cc(-c3ncnc4[nH]ccc34)cn2)CN(C2CCN(C(=O)c3ccnc(C(F)(F)F)n3)CC2)C1 [Compound 3, [3-[4-(7H-pyrrolo[2,3-d]pyrimidin-4-yl)-1H-pyrazol-1-yl]-1-(1-{[2-(trifluoromethyl)pyrimidin-4-yl]carbonyl}piperidin-4-yl)azetidin-3-yl]acetonitrile]		
< 10	>10	C[C@@H](CO)NCc1cc(OC2CCN([C@H]3C[C@](CC#N)(n4cc(-c5ncnc6[nH]ccc56)cn4)C3)CC2)nc(C(F)(F)F)c1 [Compound 23, {trans-3-(4-{[4-({[(1S)-2-hydroxy-1-methylethyl]amino}methyl)-6-(trifluoromethyl)pyridin-2-yl]oxy}piperidin-1-yl)-1-[4-(7H-pyrrolo[2,3-d]pyrimidin-4-yl)-1H-pyrazol-1-yl]cyclobutyl}acetonitrile]		
< 10	>10	C[C@H](NC(=O)c1cc(F)c(N2CC(CC#N)(n3cc(-c4ncnc5[nH]ccc45)cn3)C2)cc1F)C(F)(F)F [Compound 16, 4-{3-(cyanomethyl)-3-[4-(7H-pyrrolo[2,3-d]pyrimidin-4-yl)-1H-pyrazol-1-yl]azetidin-1-yl}-2,5-difluoro-N-[(1S)-2,2,2-trifluoro-1-methylethyl]benzamide]		
< 10	>10	CC(C)(O)c1cc(O[C@H]2CC[C@@H](N3CC(CC#N)(n4cc(-c5ncnc6[nH]ccc56)cn4)C3)CC2)nc(C(F)(F)F)c1 [Compound 20, {1-(cis-4-{[4-(1-hydroxy-1-methylethyl)-6-(trifluoromethyl)pyridin-2-yl]oxy}cyclohexyl)-3-[4-(7H-pyrrolo[2,3-d]pyrimidin-4-yl)-1H-pyrazol-1-yl]azetidin-3-yl}acetonitrile]		
< 10	>10	C[C@H](O)CNCc1cc(OC2CCN([C@H]3C[C@](CC#N)(n4cc(-c5ncnc6[nH]ccc56)cn4)C3)CC2)nc(C(F)(F)F)c1 [Compound 25, {trans-3-(4-{[4-({[(2S)-2-hydroxypropyl]amino}methyl)-6-(trifluoromethyl)pyridin-2-yl]oxy}piperidin-1-yl)-1-[4-(7H-pyrrolo[2,3-d]pyrimidin-4-yl)-1H-pyrazol-1-yl]cyclobutyl}acetonitrile]		
< 10	>10	CCNCc1cc(O[C@H]2CC[C@@H](N3CC(CC#N)(n4cc(-c5ncnc6[nH]ccc56)cn4)C3)CC2)nc(C(F)(F)F)c1 [Compound 19, {1-(cis-4-{[4-[(ethylamino)methyl]-6-(trifluoromethyl)pyridin-2-yl]oxy}cyclohexyl)-3-[4-(7H-pyrrolo[2,3-d]pyrimidin-4-yl)-1H-pyrazol-1-yl]azetidin-3-yl}acetonitrile]		

Source: patent US11406640B2, “JAK1 pathway inhibitors for the treatment of chronic lung allograft dysfunction” (Incyte Corporation, priority 2019, dated 2022)
